Results taken from PubChem BioAssay (NCI).
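1) Cells in 96-well plates. 2) Compound, 48 h, 5 concentrations. 3) Linear interpolation between surrounding doses. 4) Unreached endpoint = highest concentration. TGI marks complete inhibition of growth.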

Tests used:
Assay in all cases: NCI anticancer screen, dose series, 48 h
RXF 393 renal = test system: RXF 393 renal
HCC-2998 colon = test system: HCC-2998 colon
MOLT-4 leukemia = test system: MOLT-4 leukemia
SW-620 colon = test system: SW-620 colon
DU-145 prostate = test system: DU-145 prostate
HS 578T breast = test system: HS 578T breast
HOP-92 NSCLC = test system: HOP-92 NSCLC
CAKI-1 renal = test system: CAKI-1 renal
SNB-75 CNS = test system: SNB-75 CNS
KM12 colon = test system: KM12 colon
U251 CNS = test system: U251 CNS
OVCAR-4 ovarian = test system: OVCAR-4 ovarian
RPMI-8226 leukemia = test system: RPMI-8226 leukemia
SK-MEL-28 melanoma = test system: SK-MEL-28 melanoma
HCT-15 colon = test system: HCT-15 colon
COLO 205 colon = test system: COLO 205 colon
SN12C renal = test system: SN12C renal
786-0 renal = test system: 786-0 renal
MDA-MB-435 = test system: MDA-MB-435
OVCAR-8 ovarian = test system: OVCAR-8 ovarian
SK-MEL-2 melanoma = test system: SK-MEL-2 melanoma
A549 NSCLC = test system: A549 NSCLC
MALME-3M melanoma = test system: MALME-3M melanoma
UACC-62 melanoma = test system: UACC-62 melanoma
HCT-116 colon = test system: HCT-116 colon
ACHN renal = test system: ACHN renal
MCF7 breast = test system: MCF7 breast
OVCAR-5 ovarian = test system: OVCAR-5 ovarian
CCRF-CEM leukemia = test system: CCRF-CEM leukemia
NCI-H23 lung = test system: NCI-H23 lung
SF-295 CNS = test system: SF-295 CNS
K-562 leukemia = test system: K-562 leukemia
NCI-H226 lung = test system: NCI-H226 lung
SNB-19 CNS = test system: SNB-19 CNS
SK-OV-3 ovarian = test system: SK-OV-3 ovarian
MDA-N = test system: MDA-N
HT29 colon = test system: HT29 colon
UO-31 renal = test system: UO-31 renal
HOP-62 NSCLC = test system: HOP-62 NSCLC
M14 melanoma = test system: M14 melanoma
NCI/ADR-RES ovarian = test system: NCI/ADR-RES ovarian
SK-MEL-5 melanoma = test system: SK-MEL-5 melanoma
T-47D breast = test system: T-47D breast
UACC-257 melanoma = test system: UACC-257 melanoma
LOX IMVI melanoma = test system: LOX IMVI melanoma
SF-539 CNS = test system: SF-539 CNS
HL-60(TB) leukemia = test system: HL-60(TB) leukemia
MDA-MB-231 breast = test system: MDA-MB-231 breast
PC-3 prostate = test system: PC-3 prostate
OVCAR-3 ovarian = test system: OVCAR-3 ovarian
NCI-H460 lung = test system: NCI-H460 lung
EKVX NSCLC = test system: EKVX NSCLC
SR leukemia = test system: SR leukemia
IGROV1 ovarian = test system: IGROV1 ovarian
SF-268 CNS = test system: SF-268 CNS
TK-10 renal = test system: TK-10 renal

Measured: TGI

Nc1nc2c(ncn2C2C=CC(COS(N)(=O)=O)C2)c(=O)[nH]1 (stereo unspecified)
> 100 µM: all assays above
